Values quoted from earlier work in patent publication US20240123021A1, “PHARMACEUTICAL COMPOSITIONS” (EXTROVIS AG, priority 2021, published 2024).
Square brackets hold non-standard residues; d marks the D form. Peptide text beside a SMILES is read from it. dPhe(4-Cl) = N[C@H](Cc1ccc(Cl)cc1)C(=O)O; d2Nal = N[C@H](Cc1ccc2ccccc2c1)C(=O)O; dCit = NC(=O)NCCC[C@@H](N)C(=O)O; d3Pal = N[C@H](Cc1cccnc1)C(=O)O

Conditions: according to Cetrotide EPAR scientific discussion

Row | Molecule | aggregation and gelling in solution (in solution) | stability (thermal, aqueous solution)
1 | Acetyl-D-3-(2′-naphtyl)-alanine-D-4-chlorophenylalanine-D-3-(3′-pyridyl)alanine-L-serine-L-tyrosine-D-citruline-L-leucine-L-arginine-L-proline-D-alanine-amide [Cetrorelix] | tends to aggregate and gel | –
2 | CC(=O)N[C@H](Cc1ccc2ccccc2c1)C(=O)N[C@H](Cc1ccc(Cl)cc1)C(=O)N[C@H](Cc1cccnc1)C(=O)N[C@@H](CO)C(=O)N[C@@H](Cc1ccc(O)cc1)C(=O)N[C@H](CCCNC(N)=O)C(=O)N[C@@H](CC(C)C)C(=O)N[C@@H](CCCNC(=N)N)C(=O)N1CCC[C@H]1C(=O)N[C@H](C)C(N)=O [Cetrorelix acetate] (Ac-[d2Nal][dPhe(4-Cl)][d3Pal]SY[dCit]LRP[dA]-NH2) | – | thermally labile and unstable in aqueous solution
